US8470836B2, “Dipeptidyl peptidase-IV inhibiting compounds, methods of preparing the same, and pharmaceutical compositions containing the same as active agent” (LG Life Sciences, Ltd., priority 2007, dated 2013)
Structures can show the parent of a compound that is named as a salt.

How the values were obtained:
Format in all cases: biochemical
DPP-IX = DPP-IX (Homo sapiens (Human), UniProt Q86TI2); assay: Measurement of DPP-IX inhibitory activity (Gly-Pro-AFC); settings: 100 μM Gly-Pro-AFC, 50 mM HEPES pH 7.5, room temperature
Sequence of DPP-IX (Q86TI2 whole entry, species assumed): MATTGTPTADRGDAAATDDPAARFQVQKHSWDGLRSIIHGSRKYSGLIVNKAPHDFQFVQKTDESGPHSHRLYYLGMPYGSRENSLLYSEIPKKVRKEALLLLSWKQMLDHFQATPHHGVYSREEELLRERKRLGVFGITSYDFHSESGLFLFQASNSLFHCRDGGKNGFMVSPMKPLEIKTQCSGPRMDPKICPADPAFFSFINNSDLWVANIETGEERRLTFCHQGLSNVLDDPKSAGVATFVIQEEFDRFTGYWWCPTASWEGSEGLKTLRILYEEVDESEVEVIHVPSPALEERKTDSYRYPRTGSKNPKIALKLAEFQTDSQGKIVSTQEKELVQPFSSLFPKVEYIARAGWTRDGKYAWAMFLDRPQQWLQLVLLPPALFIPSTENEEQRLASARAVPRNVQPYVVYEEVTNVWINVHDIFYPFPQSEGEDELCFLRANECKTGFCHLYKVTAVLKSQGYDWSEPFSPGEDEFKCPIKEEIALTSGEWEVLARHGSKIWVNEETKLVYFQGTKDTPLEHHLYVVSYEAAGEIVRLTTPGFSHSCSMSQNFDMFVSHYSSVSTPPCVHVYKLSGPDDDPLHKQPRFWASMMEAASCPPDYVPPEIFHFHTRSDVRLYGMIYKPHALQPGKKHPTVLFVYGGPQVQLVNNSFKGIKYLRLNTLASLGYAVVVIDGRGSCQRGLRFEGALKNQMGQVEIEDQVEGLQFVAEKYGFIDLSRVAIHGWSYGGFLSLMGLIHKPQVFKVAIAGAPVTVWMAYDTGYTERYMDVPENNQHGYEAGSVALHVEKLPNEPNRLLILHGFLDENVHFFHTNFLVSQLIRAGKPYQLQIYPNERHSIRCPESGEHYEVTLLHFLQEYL

DPP-II = DPP-II (Homo sapiens (Human), UniProt Q9UHL4); assay: Measurement of DPP-II inhibitory activity (Gly-Pro-AFC); settings: 100 μM Gly-Pro-AFC, 50 mM acetic acid pH 4.5, room temperature
DPP-VIII = DPP-VIII (Homo sapiens (Human), UniProt Q6V1X1); assay: Measurement of DPP-VIII inhibitory activity (Gly-Pro-AFC); settings: 100 μM Gly-Pro-AFC, 50 mM HEPES pH 7.5, room temperature
Sequence of DPP-VIII (Q6V1X1 whole entry, species assumed): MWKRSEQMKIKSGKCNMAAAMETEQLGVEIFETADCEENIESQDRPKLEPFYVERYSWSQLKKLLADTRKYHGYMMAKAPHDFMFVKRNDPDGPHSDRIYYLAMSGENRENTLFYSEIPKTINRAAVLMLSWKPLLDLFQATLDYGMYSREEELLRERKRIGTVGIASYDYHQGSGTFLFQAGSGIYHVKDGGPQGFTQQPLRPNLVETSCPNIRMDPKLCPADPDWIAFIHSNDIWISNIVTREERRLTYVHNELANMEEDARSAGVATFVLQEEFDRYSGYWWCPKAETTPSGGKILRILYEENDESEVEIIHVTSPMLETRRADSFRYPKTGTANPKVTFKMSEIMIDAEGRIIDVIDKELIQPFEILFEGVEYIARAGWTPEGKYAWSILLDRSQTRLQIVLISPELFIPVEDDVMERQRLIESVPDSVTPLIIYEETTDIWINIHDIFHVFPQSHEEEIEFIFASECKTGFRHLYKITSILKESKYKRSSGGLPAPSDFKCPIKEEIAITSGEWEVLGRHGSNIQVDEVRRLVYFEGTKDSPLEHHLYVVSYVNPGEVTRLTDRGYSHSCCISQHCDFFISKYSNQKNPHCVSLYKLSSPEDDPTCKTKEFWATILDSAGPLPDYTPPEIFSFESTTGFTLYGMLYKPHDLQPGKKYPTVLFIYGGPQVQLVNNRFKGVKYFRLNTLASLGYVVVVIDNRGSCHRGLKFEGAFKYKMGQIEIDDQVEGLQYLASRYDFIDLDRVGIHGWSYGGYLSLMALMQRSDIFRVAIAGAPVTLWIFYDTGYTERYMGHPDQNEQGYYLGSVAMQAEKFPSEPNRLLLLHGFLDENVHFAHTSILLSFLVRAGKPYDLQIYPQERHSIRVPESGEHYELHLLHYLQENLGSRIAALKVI

[1] = target: Dipeptidyl peptidase-IV (DPP-IV) (Homo sapiens (Human), UniProt P27487); assay: Assay of DPP-IV inhibitory activity (fluorescent substrate Ac-Gly-Pro-AFC); settings: DPP-IV 7.1 nM, 100 μM Ac-Gly-Pro-AFC, 25° C., 50 mM HEPES pH 7.4, 1 hour
Sequence of Dipeptidyl peptidase-IV (DPP-IV) (P27487 whole entry): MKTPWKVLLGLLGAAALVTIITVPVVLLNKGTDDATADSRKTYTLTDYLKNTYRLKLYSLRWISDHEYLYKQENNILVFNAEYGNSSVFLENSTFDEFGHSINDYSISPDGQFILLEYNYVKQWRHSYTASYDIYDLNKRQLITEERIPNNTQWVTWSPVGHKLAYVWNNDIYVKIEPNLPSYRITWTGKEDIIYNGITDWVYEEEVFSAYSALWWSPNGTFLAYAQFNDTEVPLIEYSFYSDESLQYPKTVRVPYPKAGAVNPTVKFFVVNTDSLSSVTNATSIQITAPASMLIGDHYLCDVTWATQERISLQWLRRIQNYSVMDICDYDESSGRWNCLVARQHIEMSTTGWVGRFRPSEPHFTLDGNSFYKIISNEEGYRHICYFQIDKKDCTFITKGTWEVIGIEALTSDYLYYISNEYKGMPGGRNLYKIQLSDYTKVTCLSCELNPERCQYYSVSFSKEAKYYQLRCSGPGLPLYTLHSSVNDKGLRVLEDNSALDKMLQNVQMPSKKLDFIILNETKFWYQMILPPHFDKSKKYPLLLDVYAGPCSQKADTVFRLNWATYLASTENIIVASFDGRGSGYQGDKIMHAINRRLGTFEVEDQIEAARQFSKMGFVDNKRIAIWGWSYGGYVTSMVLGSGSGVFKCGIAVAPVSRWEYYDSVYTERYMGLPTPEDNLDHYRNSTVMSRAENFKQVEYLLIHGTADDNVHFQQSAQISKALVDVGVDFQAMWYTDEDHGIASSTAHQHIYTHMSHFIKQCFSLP

| IC50 (DPP-IX) [µM] | IC50 (DPP-II) [µM] | IC50 (DPP-VIII) [µM] | IC50 [1] [µM] | SMILES |
| --- | --- | --- | --- | --- |
| > 400 |  |  |  | N[C@@H](CC(=O)N1CCc2c(nc(C(F)(F)F)nc2C(F)(F)F)C1)CN1C(=O)CCC(F)(F)[C@@H]1O [Example 2, 1-[(2S)-amino-4-(2,4-bis-trifluoromethyl-5,8-dihydro-6H-pyrido[3,4-d]pyrimidin-7-yl)-4-oxo-butyl]-5,5-difluoro-(6S)-hydroxy-piperidin-2-one hydrochloride] |
| > 400 | > 161 | > 400 |  | N[C@@H](CC(=O)N1CCc2c(nc(C3CCC3)nc2C(F)(F)F)C1)CN1C(=O)CCC(F)(F)C1O (stereo partly drawn) [Example 5, 1-[(S)-2-amino-4-(2-cyclobutyl-4-trifluoromethyl-5,8-dihydro-6H-pyrido[3,4-d]pyrimidin-7-yl)-4-oxo-butyl]-5,5-difluoro-6-hydroxy-piperidin-2-one hydrochloride] |
| > 100 | > 70 | > 127 |  | N[C@@H](CC(=O)N1CCc2c(nc(-c3ccncc3)nc2C(F)(F)F)C1)CN1C(=O)CCC(F)(F)[C@@H]1O [Example 6, 1-[(S)-2-amino-4-oxo-4-(2-pyridin-4-yl-4-trifluoromethyl-5,8-dihydro-6H-pyrido[3,4-d]pyrimidin-7-yl)-butyl]-5,5-difluoro-6-hydroxy-piperidin-2-one] |
| > 130 | > 80 | > 400 |  | N[C@@H](CC(=O)N1CCc2c(nc(-c3ccco3)nc2C(F)(F)F)C1)CN1C(=O)CCC(F)(F)[C@@H]1O [Example 8, 1-[(S)-2-amino-4-(2-furan-2-yl-4-trifluoromethyl-5,8-dihydro-6H-pyrido[3,4-d]pyrimidin-7-yl)-butyl]-4-oxo-butyl]-5,5-difluoro-6-hydroxy-piperidin-2-one hydrochloride] |
| > 210 | > 400 | > 400 |  | COCCc1nc2c(c(C(F)(F)F)n1)CCN(C(=O)C[C@H](N)CN1C(=O)CCC(F)(F)[C@@H]1O)C2 [Example 10, 1-{(S)-2-amino-4-[2-(2-methoxy-ethyl)-4-trifluoromethyl-5,8-dihydro-6H-pyrido[3,4-d]pyrimidin-7-yl]-4-oxo-butyl}-5,5-difluoro-6-hydroxy-piperidin-2-one hydrochloride] |
|  |  |  | > 2.5 | CC1CC(=O)N(C[C@@H](N)CC(=O)N2CCc3c(nc(C(C)(C)C)nc3C(F)(F)F)C2)C1=O (stereo partly drawn) [Example 22, 1-[(S)-2-amino-4-(2-t-butyl-4-trifluoromethyl-5,8-dihydro-6H-pyrido[3,4-d]pyrimidin-7-yl)-4-oxo-butyl]-3-methyl-pyrrolidine-2,6-dione hydrochloride] |
